For data set [1], the system named is Hepatotoxicity. Nature of the data set: Literature-mined compound from Fourches et al multi-species drug-induced liver injury (DILI) dataset, effect in humans. The settings on record: human.
The subject of data set [2] is Hepatotoxicity. Nature of the data set: Literature-mined compound from Fourches et al multi-species drug-induced liver injury (DILI) dataset, effect in rodents. As to conditions: rodentia.
Data set [3] concerns Hepatotoxicity. Nature of the data set: Literature-mined compound from Fourches et al multi-species drug-induced liver injury (DILI) dataset, effect in non-rodents.

Where a SMILES comes first, the peptide text is derived from it. Bridges are numbered along the chain shown (N, C = ends). [ ]: non-standard residue; d: D form. The star is where a group is joined. Threoninol(2S,3R) = C[C@@H](O)[C@H](CO)N*

As to `CCCc1nc2c(C)cc(-c3nc4ccccc4n3C)cc2n1Cc1ccc(-c2ccccc2C(=O)O)cc1`, the Hepatotoxicity result in data set [1] is given as “drug-induced liver injury reported”; in data set [2] it was “drug-induced liver injury reported”; in data set [3], “no drug-induced liver injury reported”.
Turning to `CCCCC(=O)N(Cc1ccc(-c2ccccc2-c2nnn[nH]2)cc1)[C@H](C(=O)O)C(C)C`, the Hepatotoxicity result is on record as “drug-induced liver injury reported” in data set [1], “drug-induced liver injury reported” in data set [2] and “no drug-induced liver injury reported” in data set [3].
`CC(C)(C)NC(=O)[C@@H]1C[C@@H]2CCCC[C@@H]2CN1C[C@@H](O)[C@H](Cc1ccccc1)NC(=O)[C@H](CC(N)=O)NC(=O)c1ccc2ccccc2n1`: the Hepatotoxicity result is listed as “drug-induced liver injury reported” in data set [1] (Liver), “no drug-induced liver injury reported” in data set [2] (Liver) and “no drug-induced liver injury reported” in data set [3] (Liver).
With `CCOC(=O)[C@H](CCc1ccccc1)N[C@@H](C)C(=O)N1[C@H](C(=O)O)C[C@@H]2CCC[C@@H]21`, the Hepatotoxicity entry in data set [1] is listed as “drug-induced liver injury reported”; in data set [2], “drug-induced liver injury reported”; in data set [3], “no drug-induced liver injury reported”.
On to `COc1cnc(NS(=O)(=O)c2ccc(N)cc2)nc1`, for which the results for the Hepatotoxicity entry in data set [1], in data set [2] and in data set [3] were “drug-induced liver injury reported”, “no drug-induced liver injury reported” and “no drug-induced liver injury reported”, respectively.
Regarding `CC1=C(CC(=O)O)c2cc(F)ccc2/C1=C\c1ccc([S+](C)[O-])cc1` (stereo not drawn), the results for the Hepatotoxicity entry in data set [1], in data set [2] and in data set [3] were “drug-induced liver injury reported”, “drug-induced liver injury reported” and “no drug-induced liver injury reported”, respectively.
In the case of `CCN(CC)Cc1cc(Nc2ccnc3cc(Cl)ccc23)ccc1O.Cl`, the Hepatotoxicity result in data set [1] (Liver) was “drug-induced liver injury reported”; in data set [2] (Liver), “drug-induced liver injury reported”; in data set [3] (Liver), “no drug-induced liver injury reported”.
For `C[C@@H]1O[C@@H](O[C@@H]2C=C3CC[C@@H]4[C@H](CC[C@]5(C)[C@@H](c6ccc(=O)oc6)CC[C@]45O)[C@@]3(C)CC2)[C@H](O)[C@H](O)[C@H]1O[C@@H]1O[C@H](CO)[C@@H](O)[C@H](O)[C@H]1O`, the Hepatotoxicity result in data set [1] is on record as “no drug-induced liver injury reported”; in data set [2] it was “drug-induced liver injury reported”; in data set [3], “no drug-induced liver injury reported”.
`CCCc1nn(C)c2c(=O)[nH]c(-c3cc(S(=O)(=O)N4CCN(C)CC4)ccc3OCC)nc12`: the Hepatotoxicity result is “drug-induced liver injury reported” in data set [1], “no drug-induced liver injury reported” in data set [2] and “no drug-induced liver injury reported” in data set [3].
As for `CCC[C@H](NC(=O)[C@@H]1[C@H]2CCC[C@H]2CN1C(=O)[C@@H](NC(=O)[C@@H](NC(=O)c1cnccn1)C1CCCCC1)C(C)(C)C)C(=O)C(=O)NC1CC1`, the Hepatotoxicity result in data set [1] is “drug-induced liver injury reported”; in data set [2], “no drug-induced liver injury reported”; in data set [3] it was “no drug-induced liver injury reported”.
On to `O=C(O)COc1ccc(C(=O)c2cccs2)c(Cl)c1Cl`, for which the figures for the Hepatotoxicity entry in data set [1], in data set [2] and in data set [3] were “drug-induced liver injury reported”, “drug-induced liver injury reported” and “no drug-induced liver injury reported”, respectively.
With `O=C(O)C(S)C(S)C(=O)O` (stereo not drawn), the Hepatotoxicity result in data set [1] is recorded as “drug-induced liver injury reported”; in data set [2] it was “drug-induced liver injury reported”; in data set [3] it was “no drug-induced liver injury reported”.
Consider `COc1ccc(/C=C/C(=O)Nc2ccccc2C(=O)O)cc1OC`, for which the Hepatotoxicity entry in data set [1] is “no drug-induced liver injury reported”; in data set [2], “drug-induced liver injury reported”; in data set [3], “no drug-induced liver injury reported”.
Regarding `C[C@@H](O)[C@H](CO)NC(=O)[C@@H]1CSSC[C@H](NC(=O)[C@H](N)Cc2ccccc2)C(=O)N[C@@H](Cc2ccccc2)C(=O)N[C@H](Cc2c[nH]c3ccccc23)C(=O)N[C@@H](CCCCN)C(=O)N[C@@H]([C@@H](C)O)C(=O)N1` (H-[dF]CF[dW]KTC-{Threoninol(2S,3R)}; disulfide 2-7), the Hepatotoxicity entry is reported as “drug-induced liver injury reported” in data set [1], “drug-induced liver injury reported” in data set [2] and “no drug-induced liver injury reported” in data set [3].
Consider `CN1[C@@H]2CC[C@H]1C[C@@H](OC(=O)C(CO)c1ccccc1)C2` (mixture of isomers) [ATROPINE], for which the Hepatotoxicity result in data set [1] (Liver) is “no drug-induced liver injury reported”; in data set [2] (Liver), “drug-induced liver injury reported”; in data set [3] (Liver), “no drug-induced liver injury reported”.
Take `CCN(CC)CCOc1ccc(C(=C(Cl)c2ccccc2)c2ccccc2)cc1` (stereo in doubt; form 1) [CLOMIPHENE]: the Hepatotoxicity entry was “drug-induced liver injury reported” in data set [1], “no drug-induced liver injury reported” in data set [2] and “no drug-induced liver injury reported” in data set [3].
As for `C[C@]12CCC(=O)C=C1CC[C@@H]1[C@@H]2CC[C@@]2(C)[C@H]1CC[C@]2(C)O` (stereo in doubt; form 1) [METHYLTESTOSTERONE], the Hepatotoxicity result is given as “no drug-induced liver injury reported” in data set [1], “drug-induced liver injury reported” in data set [2] and “no drug-induced liver injury reported” in data set [3].
On to `CC(=O)[C@H]1CC[C@H]2[C@@H]3CCC4=CC(=O)CC[C@]4(C)[C@H]3CC[C@]12C` (stereo in doubt; form 1) [PROGESTERONE], for which the Hepatotoxicity entry in data set [1], in data set [2] and in data set [3] was “drug-induced liver injury reported” each time.
On to `COc1cc2c(cc1O)CC[C@@H]1[C@@H]2CC[C@]2(C)[C@@H](O)CC[C@@H]12` [2-METHOXYESTRADIOL], for which the results for the Hepatotoxicity result in data set [1], in data set [2] and in data set [3] were “drug-induced liver injury reported”, “drug-induced liver injury reported” and “no drug-induced liver injury reported”, respectively.
On to `O=c1[nH]cc(Br)c(=O)[nH]1` [5-BROMOURACIL], for which the results for the Hepatotoxicity entry in data set [1], in data set [2] and in data set [3] were “no drug-induced liver injury reported”, “drug-induced liver injury reported” and “no drug-induced liver injury reported”, respectively.
Regarding `Cc1cn([C@@H]2O[C@H](CO)[C@@H](O)[C@@H]2F)c(=O)[nH]c1=O` [5-METHYL-2'-FLUOROARAURACIL], the Hepatotoxicity entry in data set [1] is recorded as “drug-induced liver injury reported”; in data set [2], “no drug-induced liver injury reported”; in data set [3] it was “no drug-induced liver injury reported”.
Regarding `C[C@H](N)[C@H](O)c1ccccc1` [(1R,2S)-PHENYLPROPANOLAMINE], the Hepatotoxicity entry is given as “no drug-induced liver injury reported” in data set [1], “drug-induced liver injury reported” in data set [2] and “no drug-induced liver injury reported” in data set [3].
For `CC(C)=CCN1CC[C@]2(C)c3cc(O)ccc3C[C@H]1[C@H]2C` [(+)-PENTAZOCINE], the results for the Hepatotoxicity entry in data set [1], in data set [2] and in data set [3] were “no drug-induced liver injury reported”, “drug-induced liver injury reported” and “no drug-induced liver injury reported”, respectively.
For the compound `NC(=O)c1ncn([C@@H]2O[C@H](CO)[C@@H](O)[C@H]2O)c1N` [ACADESINE], the values for the Hepatotoxicity entry in data set [1], in data set [2] and in data set [3] were “no drug-induced liver injury reported”, “drug-induced liver injury reported” and “no drug-induced liver injury reported”, respectively.
With `C[C@H]1O[C@H](O[C@H]2[C@H](O)[C@@H](O)[C@@H](O[C@H]3[C@H](O)[C@@H](O)C(O)O[C@@H]3CO)O[C@@H]2CO)[C@H](O)[C@@H](O)[C@@H]1N[C@H]1C=C(CO)[C@@H](O)[C@H](O)[C@H]1O` (stereo partly drawn) [ACARBOSE], the Hepatotoxicity entry in data set [1] is reported as “drug-induced liver injury reported”; in data set [2] it was “drug-induced liver injury reported”; in data set [3], “no drug-induced liver injury reported”.
As for `CCCC(=O)Nc1ccc(OCC(O)CNC(C)C)c(C(C)=O)c1` (stereo not drawn) [ACEBUTOLOL], the Hepatotoxicity entry in data set [1] is recorded as “drug-induced liver injury reported”; in data set [2] it was “drug-induced liver injury reported”; in data set [3] it was “no drug-induced liver injury reported”.
With `CC(=O)CC(c1ccc([N+](=O)[O-])cc1)c1c(O)c2ccccc2oc1=O` (stereo not drawn) [ACENOCOUMAROL], the Hepatotoxicity result is listed as “drug-induced liver injury reported” in data set [1], “no drug-induced liver injury reported” in data set [2] and “no drug-induced liver injury reported” in data set [3].
Take `CC(N)=O` [ACETAMIDE]: the Hepatotoxicity result is given as “no drug-induced liver injury reported” in data set [1], “drug-induced liver injury reported” in data set [2] and “no drug-induced liver injury reported” in data set [3].
As to `CC(=O)Nc1ccc(O)cc1` [ACETAMINOPHEN], the Hepatotoxicity entry in data set [1], in data set [2] and in data set [3] was “drug-induced liver injury reported” each time.
Consider `CC(=O)Nc1nnc(S(N)(=O)=O)s1` [ACETAZOLAMIDE], for which the Hepatotoxicity entry in data set [1], in data set [2] and in data set [3] was “drug-induced liver injury reported” in each case.
Turning to `CC(=O)O` [ACETIC ACID], the Hepatotoxicity result in data set [1] (Liver), in data set [2] (Liver) and in data set [3] (Liver) was “drug-induced liver injury reported” each time.

The record behind these values is ChEMBL document CHEMBL1697731, “Cheminformatics analysis of assertions mined from literature that describe drug-induced liver injury in different species” (Chem Res Toxicol, 2010).
